Tests used:
HERG = HERG (Homo sapiens, UniProt Q12809); conditions: 20 min
Method: (§1) The rat KCR1 cDNA was provided by Dr. Haruhiro Higashida, Kanazawa University, Japan. […] MiRP1 cDNA was provided by Dr. Steve Goldstein, (Yale University) in vector pCl-neo (Promega of Madison, Wis.).
(§2) Chinese hamster ovary K1 (CHO-K1) cells were obtained from the American Type Culture Collection (Rockville, Md.) and cultured in Ham's F-12 media (Gibco-BRL of Grand Island, N.Y.) supplemented with 10% fetal bovine serum and 1% pen-strep in a humidified, 5% CO2 incubator at 37° C. CHO-K1 cells were transiently transfected using the Lipofectamine transfection reagents and method (Gibco-BRL). When studying HERG alone or HERG+MiRP1, cells were cotransfected with pGFP-IRS (without KCR1). For experiments examining HERG+KCR1, or HERG+KCR1+MiRP1, GFP expression was obtained via the KCR1-containing pGFP-IRS plasmid. In all cases, cells displaying green fluorescence 48 to 72 hours after transfection were subjected to electrophysiologic analysis.
(§3) Potassium currents were recorded at room temperature (20-22° C.) using the whole-cell patch clamp technique. […] Drug effects were recorded in cells following a pre-drug period where control data were obtained (during pulsing), and a 4 minute drug wash-in period throughout which the cell was held at −80 mV.

HERG+KCR1 = HERG+KCR1 (Homo sapiens, UniProt Q12809); conditions: 20 min
Chain of HERG+KCR1 (Q12809 whole entry): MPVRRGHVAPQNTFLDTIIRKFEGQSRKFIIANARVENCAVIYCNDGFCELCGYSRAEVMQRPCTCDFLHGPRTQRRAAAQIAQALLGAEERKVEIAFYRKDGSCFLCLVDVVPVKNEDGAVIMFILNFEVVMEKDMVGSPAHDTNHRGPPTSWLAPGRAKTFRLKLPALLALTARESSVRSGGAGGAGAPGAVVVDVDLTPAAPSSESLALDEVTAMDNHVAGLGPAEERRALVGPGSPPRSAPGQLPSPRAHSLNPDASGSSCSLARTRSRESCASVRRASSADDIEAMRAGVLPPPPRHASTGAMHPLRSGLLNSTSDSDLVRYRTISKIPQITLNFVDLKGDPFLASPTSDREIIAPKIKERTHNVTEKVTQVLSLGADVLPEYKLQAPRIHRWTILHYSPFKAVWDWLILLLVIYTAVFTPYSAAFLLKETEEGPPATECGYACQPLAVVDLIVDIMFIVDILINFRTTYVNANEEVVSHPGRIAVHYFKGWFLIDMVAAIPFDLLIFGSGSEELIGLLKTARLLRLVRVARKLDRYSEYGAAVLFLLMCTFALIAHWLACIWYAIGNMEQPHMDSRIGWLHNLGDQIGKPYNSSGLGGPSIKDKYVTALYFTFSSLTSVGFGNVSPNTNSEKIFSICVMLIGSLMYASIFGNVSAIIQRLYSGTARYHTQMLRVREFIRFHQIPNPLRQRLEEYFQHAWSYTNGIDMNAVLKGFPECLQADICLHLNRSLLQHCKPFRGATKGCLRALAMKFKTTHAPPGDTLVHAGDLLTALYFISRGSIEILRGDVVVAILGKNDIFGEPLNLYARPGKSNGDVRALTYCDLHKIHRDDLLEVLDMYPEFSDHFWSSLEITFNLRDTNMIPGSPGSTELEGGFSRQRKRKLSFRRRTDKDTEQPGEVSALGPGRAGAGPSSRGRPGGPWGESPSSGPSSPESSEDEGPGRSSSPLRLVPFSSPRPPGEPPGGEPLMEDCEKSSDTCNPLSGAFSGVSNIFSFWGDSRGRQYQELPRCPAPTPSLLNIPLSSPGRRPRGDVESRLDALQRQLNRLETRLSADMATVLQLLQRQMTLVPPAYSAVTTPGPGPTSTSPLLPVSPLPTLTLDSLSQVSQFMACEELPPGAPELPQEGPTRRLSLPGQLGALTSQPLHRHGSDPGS
Method: as §1, §2, §3

[1] = target: HERG/MiRP1 complex (human); assay: cell-based or functional assay
Chain of HERG/MiRP1 complex (human) (A5H1P7 whole entry, one chain of several): as the sequence (Q12809 whole entry) above

Chain of HERG (Q12809 whole entry): as above

Compound	HERG tail current remaining, % of the pre-drug control (HERG) [%]	HERG tail current remaining, % of the pre-drug control (HERG+KCR1) [%]	fast time constant of deactivation at -120 mV, HERG+KCR1+MiRP1 (whole-cell patch clamp, CHO-K1 cells) [1]	slow time constant of deactivation at -120 mV, HERG+KCR1+MiRP1 (whole-cell patch clamp, CHO-K1 cells) [1]
CC(C)NC[C@@H](O)c1ccc(NS(C)(=O)=O)cc1 [d-sotalol]	54±9	95±6		
rat KCR1 (from UniProt O88788 1-474)			22.5	251

Reference: US20030013136A1, “Human KCR1 regulation of HERG potassium channel block” (priority 2000, published 2003)
